Experimental data: ChEMBL document CHEMBL3808341, “Natural nitric oxide (NO) inhibitors from Chloranthus japonicus” (Bioorg Med Chem Lett, 2016)

Legend:
RAW264.7 [1] = assay: Inhibition of LPS-induced NO production in mouse RAW264.7 cells after 24 hrs by Griess assay; assay type: functional, cell-based; settings: RAW264.7, 24 h
RAW264.7 [2] = assay: Inhibition of LPS-induced NO production in mouse RAW264.7 cells at 50 uM after 24 hrs by Griess assay; assay type: functional; settings: RAW264.7, 24 h

Row | IC50 (RAW264.7 [1]) [µM] | SMILES | inhibition at 50 µM (RAW264.7 [2]) [%]
1 | 39.4 | C=C1[C@H]2C[C@H]2[C@]2(C)[C@@H]3C[C@@]4(O)C5=C(C6=C(C)C(=O)O[C@]6(OCCCC)[C@H](O)[C@@]5(C)[C@@H]5C[C@@H]54)[C@@]34OC(=O)C(C)=C4C[C@@H]12 | 
2 |  | C=C1[C@H]2C[C@H]2[C@]2(C)[C@@H]3C[C@@]4(O)C5=C(C6=C(C)C(=O)O[C@]6(OC)[C@H](O)[C@@]5(C)[C@@H]5C[C@@H]54)[C@@]34OC(=O)C(C)=C4C[C@@H]12 | < 50
3 |  | C=C1[C@H]2C[C@H]2[C@]2(C)[C@@H]3C[C@@]4(O)C5=C(C6=C(C)C(=O)O[C@]6(O)[C@H](O)[C@@]5(C)[C@@H]5C[C@@H]54)[C@@]34OC(=O)C(C)=C4C[C@@H]12 | < 50
4 | 43.2 | CO[C@]12OC(=O)C(C)=C1C1=C3[C@](C)([C@@H]4C[C@@H]4[C@@]3(O)C[C@@H]3[C@]14OC(=O)C1=C4C[C@H]4[C@](O)(COC(=O)/C(C)=C/COC(=O)CCC(=O)OC1)[C@H]1C[C@H]1[C@]34C)[C@H]2O | 
5 | 24.4 | C=C1[C@H]2C[C@H]2[C@]2(C)[C@@H]3CC4=C5[C@H](/C(=C(\C)C(=O)OC)C(=O)C[C@@]5(C)[C@@H]5C[C@H]45)[C@@]34OC(=O)C(C)=C4C[C@@H]12 | 
6 | 11.6 | C/C=C(\C)C(=O)OC[C@]1(O)[C@H]2C[C@H]2[C@]2(C)[C@@H]3CC4=C5[C@H](/C(=C(\C)C(=O)OC)C(=O)[C@H](O)[C@@]5(C)[C@@H]5C[C@H]45)[C@@]34OC(=O)C(COC(=O)CCC(=O)O)=C4C[C@@H]12 | 
7 | 25.1 | C=C1[C@H]2C[C@H]2[C@@]2(C)[C@H]1[C@@H](OC(C)=O)C1=C(C)C(=O)O[C@@]13[C@@H]1C4=C(C[C@H]32)[C@H]2C[C@H]2[C@]4(C)[C@@H](O)C(=O)/C1=C(/C)C(=O)OC | 
8 |  | C=C1[C@H]2C[C@H]2[C@@]2(C)[C@H]1[C@@H](OC(C)=O)C1=C(C)C(=O)O[C@@]13C1=C4[C@](C)([C@@H]5C[C@@H]5[C@@]4(O)C[C@H]32)[C@@H](O)C(=O)/C1=C(/C)C(=O)OC | < 50
9 |  | C=C1[C@H]2C[C@H]2[C@]2(C)[C@@H]3C[C@@]4(OO)C5=C(/C(=C(\C)C(=O)OC)C(=O)[C@H](O)[C@@]5(C)[C@@H]5C[C@@H]54)[C@@]34OC(=O)C(C)=C4C[C@@H]12 | < 50
10 | 26.3 | C=C1[C@H]2C[C@H]2[C@]2(C)[C@@H]3CC4=C5[C@H](C(C(C)C(=O)OC)=C(O)C(=O)[C@@]5(C)[C@@H]5C[C@H]45)[C@@]34OC(=O)C(C)=C4C[C@@H]12 (some centres not stated) | 
11 | 46.5 | C=C1[C@H]2C[C@H]2[C@]2(C)[C@@H]3[C@@H](O)C4=C5[C@H](/C(=C(\C)C(=O)OC)C(=O)[C@H](O)[C@@]5(C)[C@@H]5C[C@H]45)[C@@]34OC(=O)C(C)=C4C[C@@H]12 | 
12 | 6.91 | COC(=O)/C(C)=C1\C(=O)[C@H](O)[C@]2(C)C3=C(C[C@@H]4[C@]5(OC(=O)C(CO)=C5C[C@H]5[C@H](COC(C)=O)[C@H]6C[C@H]6[C@]45C)[C@H]31)[C@H]1C[C@H]12 | 

Row | SMILES | IC50 (RAW264.7 [1]) [µM] | inhibition at 50 µM (RAW264.7 [2]) [%]
13 | C=C1[C@H]2C[C@H]2[C@]2(C)[C@@H]3CC4=C5[C@H](/C(=C(/C)C(=O)OC)C(=O)[C@H](O)[C@@]5(C)[C@@H]5C[C@H]45)[C@@]34OC(=O)C(C)=C4C[C@@H]12 | 26.5 | 
14 | C=C1[C@H]2C[C@H]2[C@]2(C)[C@@H]3CC4=C5[C@H](/C(=C(\C)C(=O)OC)C(=O)[C@H](O)[C@@]5(C)[C@@H]5C[C@H]45)[C@@]34OC(=O)C(C)=C4C[C@@H]12 | 27 | 
15 | O=c1c(O)c(-c2ccc(O)c(O)c2)oc2cc(O)cc(O)c12 [QUERCETIN] | 15.9 | 
16 | COC(=O)/C(C)=C1\C(=O)[C@H](O)[C@]2(C)C3=C(C[C@@H]4[C@]5(OC(=O)C6=C5C[C@H]5[C@](O)(COC(=O)/C(C)=C/COC(=O)CCC(=O)OC6)[C@H]6C[C@H]6[C@]45C)[C@H]31)[C@H]1C[C@H]12 [SHIZUKAOL B] | 14.8 | 
17 | COC(=O)/C(C)=C1\C(=O)[C@H](O)[C@]2(C)C3=C(C[C@@H]4[C@]5(OC(=O)C6=C5C[C@H]5[C@](O)(COC(=O)/C=C(\C)COC(=O)CCC(=O)OC6)[C@H]6C[C@H]6[C@]45C)[C@H]31)[C@H]1C[C@H]12 [SHIZUKAOL F] | 21 | 
